From PubChem BioAssay (NCI)
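Method: 48-hour compound exposure of cells in 96-well plates, five concentrations, linear interpolation of endpoints. The concentration for full growth arrest is given as TGI.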

What was measured:
Test in all cases: NCI tumour cell line growth inhibition, 48 h
MALME-3M melanoma = system: MALME-3M melanoma
SN12C renal = system: SN12C renal
OVCAR-3 ovarian = system: OVCAR-3 ovarian
DMS 273 small cell lung = system: DMS 273 small cell lung
LXFL 529 NSCLC = system: LXFL 529 NSCLC
SW-620 colon = system: SW-620 colon
HCT-116 colon = system: HCT-116 colon
DMS 114 small cell lung = system: DMS 114 small cell lung
MOLT-4 leukemia = system: MOLT-4 leukemia
HOP-62 NSCLC = system: HOP-62 NSCLC
CCRF-CEM leukemia = system: CCRF-CEM leukemia
KM20L2 colon = system: KM20L2 colon
K-562 leukemia = system: K-562 leukemia
NCI-H522 lung = system: NCI-H522 lung
SR leukemia = system: SR leukemia
HT29 colon = system: HT29 colon
SF-295 CNS = system: SF-295 CNS
SK-MEL-28 melanoma = system: SK-MEL-28 melanoma
SF-539 CNS = system: SF-539 CNS
SK-MEL-5 melanoma = system: SK-MEL-5 melanoma
A549 NSCLC = system: A549 NSCLC
IGROV1 ovarian = system: IGROV1 ovarian
SK-MEL-2 melanoma = system: SK-MEL-2 melanoma
HOP-18 NSCLC = system: HOP-18 NSCLC
NCI-H226 lung = system: NCI-H226 lung
NCI-H23 lung = system: NCI-H23 lung
U251 CNS = system: U251 CNS
HCC-2998 colon = system: HCC-2998 colon
CAKI-1 renal = system: CAKI-1 renal
UACC-62 melanoma = system: UACC-62 melanoma
LOX IMVI melanoma = system: LOX IMVI melanoma
TK-10 renal = system: TK-10 renal
SNB-75 CNS = system: SNB-75 CNS
KM12 colon = system: KM12 colon
ACHN renal = system: ACHN renal
HL-60(TB) leukemia = system: HL-60(TB) leukemia
EKVX NSCLC = system: EKVX NSCLC
NCI-H460 lung = system: NCI-H460 lung
M14 melanoma = system: M14 melanoma
SNB-19 CNS = system: SNB-19 CNS
SNB-78 CNS = system: SNB-78 CNS
M19-MEL melanoma = system: M19-MEL melanoma
OVCAR-8 ovarian = system: OVCAR-8 ovarian
SK-OV-3 ovarian = system: SK-OV-3 ovarian
OVCAR-5 ovarian = system: OVCAR-5 ovarian
HOP-92 NSCLC = system: HOP-92 NSCLC
RPMI-8226 leukemia = system: RPMI-8226 leukemia
HCT-15 colon = system: HCT-15 colon
786-0 renal = system: 786-0 renal
COLO 205 colon = system: COLO 205 colon
DLD-1 colon = system: DLD-1 colon
UO-31 renal = system: UO-31 renal
RXF 393 renal = system: RXF 393 renal
BT-549 breast = system: BT-549 breast
UACC-257 melanoma = system: UACC-257 melanoma
HS 578T breast = system: HS 578T breast
MDA-MB-231 breast = system: MDA-MB-231 breast
DU-145 prostate = system: DU-145 prostate
SF-268 CNS = system: SF-268 CNS
MDA-MB-435 = system: MDA-MB-435
PC-3 prostate = system: PC-3 prostate
NCI/ADR-RES ovarian = system: NCI/ADR-RES ovarian
MCF7 breast = system: MCF7 breast
T-47D breast = system: T-47D breast
OVCAR-4 ovarian = system: OVCAR-4 ovarian
A498 renal = system: A498 renal
MDA-N = system: MDA-N

`[N-]=[N+]=NC(c1cn(C2CC(O)C(CO)O2)c(=O)[nH]c1=O)C(Br)Br` (configuration not stated) gave a TGI (MALME-3M melanoma) of over 100 µM, a TGI (SN12C renal) of over 100 µM and a TGI (OVCAR-3 ovarian) of over 100 µM. For the same compound, the TGI (DMS 273 small cell lung) was over 100 µM, the TGI (LXFL 529 NSCLC) was over 100 µM and the TGI (SW-620 colon) was over 100 µM. The TGI (HCT-116 colon) was over 100 µM, the TGI (DMS 114 small cell lung) was over 100 µM and the TGI (MOLT-4 leukemia) was over 100 µM. For the same compound, the TGI (HOP-62 NSCLC) was over 100 µM, the TGI (CCRF-CEM leukemia) was over 100 µM and the TGI (KM20L2 colon) was over 100 µM. The TGI (K-562 leukemia) was over 100 µM, the TGI (NCI-H522 lung) was over 100 µM and the TGI (SR leukemia) was over 100 µM. For the same compound, the TGI (HT29 colon) was over 100 µM, the TGI (SF-295 CNS) was over 100 µM and the TGI (SK-MEL-28 melanoma) was over 100 µM. For the same compound, the TGI (SF-539 CNS) was over 100 µM, the TGI (SK-MEL-5 melanoma) was over 100 µM and the TGI (A549 NSCLC) was over 100 µM. For the same compound, the TGI (IGROV1 ovarian) was over 100 µM, the TGI (SK-MEL-2 melanoma) was over 100 µM and the TGI (HOP-18 NSCLC) was over 100 µM. The TGI (NCI-H226 lung) was over 100 µM, the TGI (NCI-H23 lung) was over 100 µM and the TGI (U251 CNS) was over 100 µM. The TGI (HCC-2998 colon) was over 100 µM, the TGI (CAKI-1 renal) was over 100 µM and the TGI (UACC-62 melanoma) was over 100 µM. It also gave a TGI (LOX IMVI melanoma) of over 100 µM, a TGI (TK-10 renal) of over 100 µM and a TGI (SNB-75 CNS) of over 100 µM. It also gave a TGI (KM12 colon) of over 100 µM, a TGI (ACHN renal) of over 100 µM and a TGI (HL-60(TB) leukemia) of over 100 µM. The TGI (EKVX NSCLC) was over 100 µM, the TGI (NCI-H460 lung) was over 100 µM and the TGI (M14 melanoma) was over 100 µM. The TGI (SNB-19 CNS) was over 100 µM, the TGI (SNB-78 CNS) was over 100 µM and the TGI (M19-MEL melanoma) was over 100 µM. It also gave a TGI (OVCAR-8 ovarian) of over 100 µM, a TGI (SK-OV-3 ovarian) of over 100 µM and a TGI (OVCAR-5 ovarian) of over 100 µM. For the same compound, the TGI (HOP-92 NSCLC) was over 100 µM, the TGI (RPMI-8226 leukemia) was over 100 µM and the TGI (HCT-15 colon) was over 100 µM. The TGI (786-0 renal) was over 100 µM, the TGI (COLO 205 colon) was over 100 µM and the TGI (DLD-1 colon) was over 100 µM. It also gave a TGI (UO-31 renal) of over 100 µM and a TGI (RXF 393 renal) of over 100 µM.
`NC(=O)N/N=C(/CC1C(=O)Oc2ccccc21)c1ccccc1O` (configuration not stated) gave a TGI (MALME-3M melanoma) of over 100 µM, a TGI (SN12C renal) of over 100 µM and a TGI (BT-549 breast) of over 100 µM. It also gave a TGI (OVCAR-3 ovarian) of over 100 µM, a TGI (SW-620 colon) of over 100 µM and a TGI (HCT-116 colon) of over 100 µM. The TGI (UACC-257 melanoma) was over 100 µM, the TGI (HS 578T breast) was over 100 µM and the TGI (MOLT-4 leukemia) was 50.9 µM. The TGI (HOP-62 NSCLC) was over 100 µM, the TGI (MDA-MB-231 breast) was over 100 µM and the TGI (CCRF-CEM leukemia) was 56.9 µM. For the same compound, the TGI (DU-145 prostate) was over 100 µM, the TGI (SF-268 CNS) was over 100 µM and the TGI (K-562 leukemia) was over 100 µM. The TGI (NCI-H522 lung) was over 100 µM, the TGI (SR leukemia) was 40.8 µM and the TGI (MDA-MB-435) was over 100 µM. For the same compound, the TGI (PC-3 prostate) was over 100 µM, the TGI (HT29 colon) was over 100 µM and the TGI (SF-295 CNS) was over 100 µM. For the same compound, the TGI (SK-MEL-28 melanoma) was over 100 µM, the TGI (SF-539 CNS) was 91.1 µM and the TGI (SK-MEL-5 melanoma) was over 100 µM. For the same compound, the TGI (A549 NSCLC) was over 100 µM, the TGI (NCI/ADR-RES ovarian) was 98.2 µM and the TGI (IGROV1 ovarian) was over 100 µM. It also gave a TGI (SK-MEL-2 melanoma) of over 100 µM, a TGI (NCI-H226 lung) of 82.5 µM and a TGI (NCI-H23 lung) of over 100 µM. For the same compound, the TGI (U251 CNS) was over 100 µM, the TGI (HCC-2998 colon) was 91.1 µM and the TGI (CAKI-1 renal) was over 100 µM. For the same compound, the TGI (UACC-62 melanoma) was 63.6 µM, the TGI (LOX IMVI melanoma) was 41.5 µM and the TGI (TK-10 renal) was over 100 µM. It also gave a TGI (SNB-75 CNS) of over 100 µM, a TGI (MCF7 breast) of over 100 µM and a TGI (KM12 colon) of over 100 µM. It also gave a TGI (ACHN renal) of over 100 µM, a TGI (T-47D breast) of over 100 µM and a TGI (HL-60(TB) leukemia) of 51 µM. The TGI (EKVX NSCLC) was over 100 µM, the TGI (NCI-H460 lung) was over 100 µM and the TGI (M14 melanoma) was over 100 µM. The TGI (OVCAR-4 ovarian) was over 100 µM, the TGI (SNB-19 CNS) was over 100 µM and the TGI (OVCAR-8 ovarian) was over 100 µM. For the same compound, the TGI (SK-OV-3 ovarian) was over 100 µM, the TGI (OVCAR-5 ovarian) was over 100 µM and the TGI (HOP-92 NSCLC) was over 100 µM. The TGI (RPMI-8226 leukemia) was 34.9 µM, the TGI (A498 renal) was over 100 µM and the TGI (MDA-N) was over 100 µM. The TGI (HCT-15 colon) was over 100 µM, the TGI (786-0 renal) was over 100 µM and the TGI (COLO 205 colon) was over 100 µM. It also gave a TGI (UO-31 renal) of over 100 µM and a TGI (RXF 393 renal) of over 100 µM.
